Test results taken from US20220031800A1, “PEPTIDES FOR TREATING NON-EXUDATIVE MACULAR DEGENERATION AND OTHER DISORDERS OF THE EYE” (Allegro Pharmaceuticals, LLC, priority 2019, published 2022).
Square brackets hold non-standard residues; d marks the D form. Peptide text beside a SMILES is read from it. Cya = N[C@@H](CS(=O)(=O)O)C(=O)O

Tested on: study eye of subjects with intermediate non-exudative AMD
Experiment: SD-OCT Analysis 2 (thickness, volume, map coverage of retinal layers)
Format: in vivo, human
Details: change from baseline at Week 32
Experimental: Numerous study assessments were conducted at various time points throughout the study. Included among these study assessments were; refractive eye examinations, determinations of BCVA AND low-luminance BCVA, Lanthony D-15 color vision test, measurement of intraocular pressure (IOP), Indirect ophthalmoscopy/dilated fundus examinations and spectral-domain optical coherence tomography (SD-OCT). Also, blood and saliva samples were obtained from each subject for genetic analysis. The above-listed study assessments were performed at the time points indicated in Table 1, below: The OCT scans were analyzed by two (2) unrelated experts. In Analysis #2, the OCT images of study eyes were analyzed to determine mean thickness and mean volume of numerous retinal subfields and layer segments at baseline and at Week 12 for sham eyes and at baseline and at Week 32 for risuteganib eyes, to document any significant differences between groups of eyes based on baseline measurements or changes from baseline in those measurements. In addition to the quantitative analysis of OCT images, OCT Analysis #2 included qualitative assessment of the OCT images to identify GA, pseudodrusen, and disruption of the ELM and EZ layers. FIGS. 9A, 9B and 9C illustrate the level of varying pathology within the ELM based on quantitative mapping that were also assessed, with FIG. 9A (left) showing no ELM disruption, FIG. 9B (center) showing segmental disruption, and FIG. 9C showing diffuse disruption.

[1] = risuteganib nonresponder eyes, n = 12

C[C@@H](O)[C@H](NC(=O)[C@H](CS(=O)(=O)O)NC(=O)CNC(=O)[C@H](CCCNC(=N)N)NC(=O)CN)C(=O)N1CCC[C@H]1C(=O)O [risuteganib, Glycyl-L-arginylglycyl-3-sulfo-L-alanyl-L-threonyl-L-proline] (H-GRG[Cya]TP-OH)
Change in mean thickness, ONL-RPE foveal center (Risuteganib Responder eyes): 0.650 μm
Change in mean thickness, ONL-RPE mid subfield (Risuteganib Responder eyes): −6.561 μm
Change in mean thickness, RPE-BM central subfield (Risuteganib Responder eyes): −8.238 μm
Change in mean thickness, RPE-BM foveal center (Risuteganib Responder eyes): −12.512 μm
Change in mean thickness, RPE-BM mid subfield (Risuteganib Responder eyes): −5.287 μm
Change in mean thickness, Total retinal central subfield (Risuteganib Responder eyes): −0.691 μm
Change in mean thickness, Total retinal foveal center (Risuteganib Responder eyes): 0.804 μm
Change in mean thickness, Total retinal mid subfield (Risuteganib Responder eyes): −1.049 μm
Change in volume, ELM-EZ central subfield (Risuteganib Responder eyes): −0.002 mm^3
Change in volume, ELM-EZ mid subfield (Risuteganib Responder eyes): −0.003 mm^3
Change in volume, ELM-RPE (Risuteganib Responder eyes): 0.086 mm^3
Change in volume, ELM-RPE central subfield (Risuteganib Responder eyes): −0.002 mm^3
Change in volume, ELM-RPE mid subfield (Risuteganib Responder eyes): −0.007 mm^3
Change in volume, EZ-RPE (Risuteganib Responder eyes): −0.059 mm^3
Change in volume, EZ-RPE central subfield (Risuteganib Responder eyes): −0.001 mm^3
Change in volume, EZ-RPE mid subfield (Risuteganib Responder eyes): −0.004 mm^3
Change in volume, ONL-EZ central subfield (Risuteganib Responder eyes): −0.004 mm^3
Change in volume, ONL-EZ mid subfield (Risuteganib Responder eyes): −0.017 mm^3
Change in volume, ONL-RPE (Risuteganib Responder eyes): 0.009 mm^3
Change in volume, ONL-RPE central subfield (Risuteganib Responder eyes): −0.005 mm^3
Change in volume, ONL-RPE mid subfield (Risuteganib Responder eyes): −0.021 mm^3
Change in volume, RPE-BM (Risuteganib Responder eyes): −0.049 mm^3
Change in volume, RPE-BM central subfield (Risuteganib Responder eyes): −0.007 mm^3
Change in volume, RPE-BM mid subfield (Risuteganib Responder eyes): −0.017 mm^3
Change in volume, Total retinal (Risuteganib Responder eyes): −0.188 mm^3
Change in volume, Total retinal central subfield (Risuteganib Responder eyes): 0.000 mm^3
Change in volume, Total retinal mid subfield (Risuteganib Responder eyes): −0.004 mm^3
Map coverage, 0 μm EZ (Risuteganib Responder eyes): 3.679%
Map coverage, 0 μm RPE-BM (Risuteganib Responder eyes): 1.099%
Map coverage, 10 μm EZ (Risuteganib Responder eyes): 3.699%
Map coverage, 20 μm EZ (Risuteganib Responder eyes): 3.574%
Map coverage, 50 μm RPE-BM (Risuteganib Responder eyes): −3.49%
Map coverage, 150 μm RPE-BM (Risuteganib Responder eyes): 3.335%
Map coverage, 250 μm RPE-BM (Risuteganib Responder eyes): −0.011%
Change in mean thickness, ELM-EZ central subfield (risuteganib arm, n = 24): −1.827 μm
Change in mean thickness, ELM-EZ mid subfield (risuteganib arm, n = 24): −0.106 μm
Change in mean thickness, ELM-RPE central subfield (risuteganib arm, n = 24): −2.912 μm
Change in mean thickness, ELM-RPE foveal center (risuteganib arm, n = 24): −6.094 μm
Change in mean thickness, ELM-RPE mid subfield (risuteganib arm, n = 24): −1.593 μm
Change in mean thickness, EZ-RPE central subfield (risuteganib arm, n = 24): −1.085 μm
Change in mean thickness, EZ-RPE foveal center (risuteganib arm, n = 24): −0.407 μm
Change in mean thickness, EZ-RPE mid subfield (risuteganib arm, n = 24): −1.486 μm
Change in mean thickness, Inner retina central subfield (risuteganib arm, n = 24): 3.880 μm
Change in mean thickness, Inner retina mid subfield (risuteganib arm, n = 24): 3.893 μm
Change in mean thickness, ONL-EZ central subfield (risuteganib arm, n = 24): −6.131 μm
Change in mean thickness, ONL-EZ mid subfield (risuteganib arm, n = 24): −4.954 μm
Change in mean thickness, ONL-RPE central subfield (risuteganib arm, n = 24): −7.216 μm
Change in mean thickness, ONL-RPE foveal center (risuteganib arm, n = 24): −3.488 μm
Change in mean thickness, ONL-RPE mid subfield (risuteganib arm, n = 24): −6.441 μm
Change in mean thickness, RPE-BM central subfield (risuteganib arm, n = 24): −4.178 μm
Change in mean thickness, RPE-BM foveal center (risuteganib arm, n = 24): −8.126 μm
Change in mean thickness, RPE-BM mid subfield (risuteganib arm, n = 24): −2.086 μm
Change in mean thickness, Total retinal central subfield (risuteganib arm, n = 24): −3.336 μm
Change in mean thickness, Total retinal foveal center (risuteganib arm, n = 24): −4.154 μm
Change in mean thickness, Total retinal mid subfield (risuteganib arm, n = 24): −2.548 μm
Change in volume, ELM-EZ central subfield (risuteganib arm, n = 24): −0.001 mm^3
Change in volume, ELM-EZ mid subfield (risuteganib arm, n = 24): 0.000 mm^3
Change in volume, ELM-RPE (risuteganib arm, n = 24): 0.048 mm^3
Change in volume, ELM-RPE central subfield (risuteganib arm, n = 24): −0.002 mm^3
Change in volume, ELM-RPE mid subfield (risuteganib arm, n = 24): −0.005 mm^3
Change in volume, EZ-RPE (risuteganib arm, n = 24): −0.027 mm^3
Change in volume, EZ-RPE central subfield (risuteganib arm, n = 24): −0.001 mm^3
Change in volume, EZ-RPE mid subfield (risuteganib arm, n = 24): −0.005 mm^3
Change in volume, ONL-EZ central subfield (risuteganib arm, n = 24): −0.005 mm^3
Change in volume, ONL-EZ mid subfield (risuteganib arm, n = 24): −0.016 mm^3
Change in volume, ONL-RPE (risuteganib arm, n = 24): −0.009 mm^3
Change in volume, ONL-RPE central subfield (risuteganib arm, n = 24): −0.005 mm^3
Change in volume, ONL-RPE mid subfield (risuteganib arm, n = 24): −0.020 mm^3
Change in volume, RPE-BM (risuteganib arm, n = 24): −0.006 mm^3
Change in volume, RPE-BM central subfield (risuteganib arm, n = 24): −0.003 mm^3
Change in volume, RPE-BM mid subfield (risuteganib arm, n = 24): −0.007 mm^3
Change in volume, Total retinal (risuteganib arm, n = 24): −0.048 mm^3
Change in volume, Total retinal central subfield (risuteganib arm, n = 24): −0.002 mm^3
Change in volume, Total retinal mid subfield (risuteganib arm, n = 24): −0.008 mm^3
Map coverage, 0 μm EZ (risuteganib arm, n = 24): 2.574%
Map coverage, 0 μm RPE-BM (risuteganib arm, n = 24): 1.282%
Map coverage, 10 μm EZ (risuteganib arm, n = 24): 2.515%
Map coverage, 20 μm EZ (risuteganib arm, n = 24): 2.431%
Map coverage, 50 μm RPE-BM (risuteganib arm, n = 24): −2.644%
Map coverage, 150 μm RPE-BM (risuteganib arm, n = 24): 2.739%
Map coverage, 250 μm RPE-BM (risuteganib arm, n = 24): −0.006%
Change in mean thickness, ELM-EZ central subfield [1]: −1.332 μm
Change in mean thickness, ELM-EZ mid subfield [1]: 0.754 μm
Change in mean thickness, ELM-RPE central subfield [1]: −2.722 μm
Change in mean thickness, ELM-RPE foveal center [1]: −12.189 μm
Change in mean thickness, ELM-RPE mid subfield [1]: −1.044 μm
Change in mean thickness, EZ-RPE central subfield [1]: −1.390 μm
Change in mean thickness, EZ-RPE foveal center [1]: −1.789 μm
Change in mean thickness, EZ-RPE mid subfield [1]: −1.798 μm
Change in mean thickness, Inner retina central subfield [1]: 1.896 μm
